Tests used:
Test in all cases: radiometric filter-binding kinase assay, Kinase HotSpot
Settings in all cases: compound 0.5 µM; ATP 10 µM
CSNK1E (human) = CSNK1E (human) (UniProt P49674)
SRC (human) = SRC (human) (UniProt P12931)
FES (human) = FES (human) (UniProt P07332)
CDC42BPB (human) = CDC42BPB (human) (UniProt Q9Y5S2)
AURKB (human) = AURKB (human) (UniProt Q96GD4)
DAPK1 (human) = DAPK1 (human) (UniProt P53355)
FGR (human) = FGR (human) (UniProt P09769)
STK4 (human) = STK4 (human) (UniProt Q13043)
MET (human) = MET (human) (UniProt P08581)
DYRK1A (human) = DYRK1A (human) (UniProt Q13627)
GSK3A (human) = GSK3A (human) (UniProt P49840)
PIM2 (human) = PIM2 (human) (UniProt Q9P1W9)
CSNK1A1 (human) = CSNK1A1 (human) (UniProt P48729)
CDK5 CDK5R1 p25 (human) = CDK5 CDK5R1 p25 (human) (UniProt Q00535+Q15078)
RPS6KA2 KD1 KD2 (human) = RPS6KA2 KD1 KD2 (human) (UniProt Q15349)
MAP3K2 (human) = MAP3K2 (human) (UniProt Q9Y2U5)
YES1 (human) = YES1 (human) (UniProt P07947)
CAMKK1 (human) = CAMKK1 (human) (UniProt Q8N5S9)
MAPK11 (human) = MAPK11 (human) (UniProt Q15759)
HIPK2 (human) = HIPK2 (human) (UniProt Q9H2X6)
MAP3K11 (human) = MAP3K11 (human) (UniProt Q16584)
TGFBR1 (human) = TGFBR1 (human) (UniProt P36897)
PRKG2 (human) = PRKG2 (human) (UniProt Q13237)
DMPK (human) = DMPK (human) (UniProt Q09013)
INSRR (human) = INSRR (human) (UniProt P14616)
EPHB2 (human) = EPHB2 (human) (UniProt P29323)
SGK3 (human) = SGK3 (human) (UniProt Q96BR1)
AKT3 (human) = AKT3 (human) (UniProt Q9Y243)
MYLK2 (human) = MYLK2 (human) (UniProt Q9H1R3)
CSNK1D (human) = CSNK1D (human) (UniProt P48730)
RAF1 (human) = RAF1 (human) (UniProt P04049)
OXSR1 (human) = OXSR1 (human) (UniProt O95747)
PRKCD (human) = PRKCD (human) (UniProt Q05655)
PTK2 (human) = PTK2 (human) (UniProt Q05397)
JAK2 JH1 JH2 (human) = JAK2 JH1 JH2 (human) (UniProt O60674)
AURKA (human) = AURKA (human) (UniProt O14965)
PDGFRB (human) = PDGFRB (human) (UniProt P09619)
BLK (human) = BLK (human) (UniProt P51451)
MLTK (human) = MLTK (human) (UniProt Q9NYL2)
MAP2K2 (human) = MAP2K2 (human) (UniProt P36507)
[1] = target: JAK1 JH1 catalytic (human) (UniProt P23458)
FLT1 (human) = FLT1 (human) (UniProt P17948)
FLT1 (human), sequence (P17948 whole entry, looked up): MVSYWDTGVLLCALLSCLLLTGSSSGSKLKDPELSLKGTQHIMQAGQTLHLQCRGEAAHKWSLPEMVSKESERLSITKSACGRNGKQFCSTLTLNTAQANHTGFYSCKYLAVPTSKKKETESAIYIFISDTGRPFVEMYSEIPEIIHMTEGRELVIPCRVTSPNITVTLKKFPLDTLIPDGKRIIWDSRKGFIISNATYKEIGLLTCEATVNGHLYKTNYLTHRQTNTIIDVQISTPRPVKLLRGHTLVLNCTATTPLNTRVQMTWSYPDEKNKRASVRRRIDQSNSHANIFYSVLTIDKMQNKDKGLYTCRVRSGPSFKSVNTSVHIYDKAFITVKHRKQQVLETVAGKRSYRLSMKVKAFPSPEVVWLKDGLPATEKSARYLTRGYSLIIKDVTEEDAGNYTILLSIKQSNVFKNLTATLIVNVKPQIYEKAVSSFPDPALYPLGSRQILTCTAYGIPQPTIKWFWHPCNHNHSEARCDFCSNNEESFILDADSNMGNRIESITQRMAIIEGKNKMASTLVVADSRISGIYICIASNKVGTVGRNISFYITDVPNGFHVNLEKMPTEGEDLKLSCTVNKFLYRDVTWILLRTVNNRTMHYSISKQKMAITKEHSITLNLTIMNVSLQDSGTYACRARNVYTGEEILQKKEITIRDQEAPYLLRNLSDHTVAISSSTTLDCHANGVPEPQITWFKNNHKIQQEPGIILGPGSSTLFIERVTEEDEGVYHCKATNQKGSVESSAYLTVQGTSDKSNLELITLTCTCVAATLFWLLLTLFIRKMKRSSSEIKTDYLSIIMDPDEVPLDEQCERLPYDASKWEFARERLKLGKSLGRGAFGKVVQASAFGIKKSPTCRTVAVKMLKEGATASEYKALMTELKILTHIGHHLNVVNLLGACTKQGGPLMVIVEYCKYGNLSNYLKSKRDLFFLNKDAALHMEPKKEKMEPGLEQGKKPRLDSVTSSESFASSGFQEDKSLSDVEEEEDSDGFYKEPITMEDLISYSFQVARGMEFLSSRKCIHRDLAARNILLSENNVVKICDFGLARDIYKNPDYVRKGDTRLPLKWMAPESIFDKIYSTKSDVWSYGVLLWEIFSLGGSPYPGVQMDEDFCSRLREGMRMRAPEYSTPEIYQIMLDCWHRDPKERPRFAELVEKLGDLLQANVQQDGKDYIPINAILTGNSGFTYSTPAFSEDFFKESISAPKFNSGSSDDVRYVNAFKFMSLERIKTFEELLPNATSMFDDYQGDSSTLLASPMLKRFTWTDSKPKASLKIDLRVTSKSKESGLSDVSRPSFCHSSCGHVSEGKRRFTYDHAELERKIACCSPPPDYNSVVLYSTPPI

DMPK (human), sequence (Q09013 whole entry, looked up): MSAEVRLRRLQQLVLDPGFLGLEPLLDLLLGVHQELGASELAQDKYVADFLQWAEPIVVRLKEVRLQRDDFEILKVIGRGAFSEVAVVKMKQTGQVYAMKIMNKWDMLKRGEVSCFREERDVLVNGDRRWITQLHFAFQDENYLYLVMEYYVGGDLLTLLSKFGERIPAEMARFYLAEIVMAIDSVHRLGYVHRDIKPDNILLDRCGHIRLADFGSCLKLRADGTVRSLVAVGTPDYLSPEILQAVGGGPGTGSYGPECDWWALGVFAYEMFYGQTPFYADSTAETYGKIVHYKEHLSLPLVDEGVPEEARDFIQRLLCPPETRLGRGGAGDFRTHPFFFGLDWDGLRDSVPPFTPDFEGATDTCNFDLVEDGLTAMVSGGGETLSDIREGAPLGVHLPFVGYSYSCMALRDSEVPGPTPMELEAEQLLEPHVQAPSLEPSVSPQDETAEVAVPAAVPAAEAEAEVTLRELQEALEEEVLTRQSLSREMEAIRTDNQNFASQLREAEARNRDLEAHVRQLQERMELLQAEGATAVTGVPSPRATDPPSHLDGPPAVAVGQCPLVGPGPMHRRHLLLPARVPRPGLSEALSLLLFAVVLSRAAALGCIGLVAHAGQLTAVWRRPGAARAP
STK4 (human), sequence (Q13043 whole entry, looked up): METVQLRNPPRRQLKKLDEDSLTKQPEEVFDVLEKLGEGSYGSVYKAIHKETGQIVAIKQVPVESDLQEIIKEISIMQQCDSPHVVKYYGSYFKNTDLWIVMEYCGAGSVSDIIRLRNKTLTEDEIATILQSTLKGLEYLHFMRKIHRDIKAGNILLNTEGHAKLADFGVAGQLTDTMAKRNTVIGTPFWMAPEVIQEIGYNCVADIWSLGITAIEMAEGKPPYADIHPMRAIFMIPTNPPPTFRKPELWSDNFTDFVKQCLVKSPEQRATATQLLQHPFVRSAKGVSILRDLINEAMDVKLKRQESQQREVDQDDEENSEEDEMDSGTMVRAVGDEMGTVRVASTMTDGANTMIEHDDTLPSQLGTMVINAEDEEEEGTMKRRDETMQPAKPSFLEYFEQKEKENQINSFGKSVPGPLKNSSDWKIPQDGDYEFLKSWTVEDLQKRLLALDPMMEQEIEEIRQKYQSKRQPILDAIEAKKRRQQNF
AURKB (human), sequence (Q96GD4 whole entry, looked up): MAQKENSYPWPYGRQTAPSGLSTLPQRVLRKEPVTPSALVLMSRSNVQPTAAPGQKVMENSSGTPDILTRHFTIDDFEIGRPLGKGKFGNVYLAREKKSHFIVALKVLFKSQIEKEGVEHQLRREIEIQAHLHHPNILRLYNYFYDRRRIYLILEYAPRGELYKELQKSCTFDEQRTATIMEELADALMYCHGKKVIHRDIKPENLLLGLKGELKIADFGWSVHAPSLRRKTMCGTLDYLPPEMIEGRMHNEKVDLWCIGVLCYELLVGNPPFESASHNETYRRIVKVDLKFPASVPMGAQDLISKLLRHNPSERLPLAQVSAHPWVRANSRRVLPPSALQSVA
CSNK1E (human), sequence (P49674 whole entry, looked up): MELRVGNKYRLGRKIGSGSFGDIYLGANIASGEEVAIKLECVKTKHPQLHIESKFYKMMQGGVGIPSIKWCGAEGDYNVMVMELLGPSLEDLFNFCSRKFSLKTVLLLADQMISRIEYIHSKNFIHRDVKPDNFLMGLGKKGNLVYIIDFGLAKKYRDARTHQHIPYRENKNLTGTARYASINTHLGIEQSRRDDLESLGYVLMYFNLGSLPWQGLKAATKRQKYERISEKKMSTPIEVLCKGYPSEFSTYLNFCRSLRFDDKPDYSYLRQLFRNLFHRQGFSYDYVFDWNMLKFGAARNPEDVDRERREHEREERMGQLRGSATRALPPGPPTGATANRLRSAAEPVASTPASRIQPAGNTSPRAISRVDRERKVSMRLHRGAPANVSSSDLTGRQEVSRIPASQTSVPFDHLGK
JAK2 JH1 JH2 (human), sequence (O60674 whole entry, looked up): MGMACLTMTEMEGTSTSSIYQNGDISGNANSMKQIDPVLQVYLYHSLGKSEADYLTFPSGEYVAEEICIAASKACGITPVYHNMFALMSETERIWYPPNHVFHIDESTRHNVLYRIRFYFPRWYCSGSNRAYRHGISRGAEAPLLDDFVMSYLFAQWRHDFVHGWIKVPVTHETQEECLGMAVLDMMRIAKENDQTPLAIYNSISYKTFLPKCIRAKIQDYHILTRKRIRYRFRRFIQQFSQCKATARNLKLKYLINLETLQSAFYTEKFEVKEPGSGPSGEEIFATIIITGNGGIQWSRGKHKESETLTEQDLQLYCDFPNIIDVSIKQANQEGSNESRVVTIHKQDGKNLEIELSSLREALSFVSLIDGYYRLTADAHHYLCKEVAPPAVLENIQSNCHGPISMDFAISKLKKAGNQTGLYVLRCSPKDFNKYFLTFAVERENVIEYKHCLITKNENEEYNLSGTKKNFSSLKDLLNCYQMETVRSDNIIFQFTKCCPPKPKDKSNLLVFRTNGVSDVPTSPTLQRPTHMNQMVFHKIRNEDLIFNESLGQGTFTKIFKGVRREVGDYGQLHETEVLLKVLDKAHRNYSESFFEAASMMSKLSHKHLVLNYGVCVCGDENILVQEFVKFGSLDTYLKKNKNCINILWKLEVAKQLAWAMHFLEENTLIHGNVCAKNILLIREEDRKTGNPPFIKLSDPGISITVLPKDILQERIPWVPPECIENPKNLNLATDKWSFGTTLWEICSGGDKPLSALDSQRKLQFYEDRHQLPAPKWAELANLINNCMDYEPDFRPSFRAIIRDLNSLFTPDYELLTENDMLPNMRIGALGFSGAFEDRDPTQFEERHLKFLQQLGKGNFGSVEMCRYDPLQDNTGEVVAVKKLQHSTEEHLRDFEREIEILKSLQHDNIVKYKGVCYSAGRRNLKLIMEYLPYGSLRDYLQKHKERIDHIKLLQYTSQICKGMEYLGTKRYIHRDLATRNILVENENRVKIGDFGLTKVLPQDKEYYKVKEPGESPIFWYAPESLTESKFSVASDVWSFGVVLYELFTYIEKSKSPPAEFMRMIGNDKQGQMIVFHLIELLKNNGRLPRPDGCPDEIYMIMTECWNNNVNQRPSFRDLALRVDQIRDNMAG
YES1 (human), sequence (P07947 whole entry, looked up): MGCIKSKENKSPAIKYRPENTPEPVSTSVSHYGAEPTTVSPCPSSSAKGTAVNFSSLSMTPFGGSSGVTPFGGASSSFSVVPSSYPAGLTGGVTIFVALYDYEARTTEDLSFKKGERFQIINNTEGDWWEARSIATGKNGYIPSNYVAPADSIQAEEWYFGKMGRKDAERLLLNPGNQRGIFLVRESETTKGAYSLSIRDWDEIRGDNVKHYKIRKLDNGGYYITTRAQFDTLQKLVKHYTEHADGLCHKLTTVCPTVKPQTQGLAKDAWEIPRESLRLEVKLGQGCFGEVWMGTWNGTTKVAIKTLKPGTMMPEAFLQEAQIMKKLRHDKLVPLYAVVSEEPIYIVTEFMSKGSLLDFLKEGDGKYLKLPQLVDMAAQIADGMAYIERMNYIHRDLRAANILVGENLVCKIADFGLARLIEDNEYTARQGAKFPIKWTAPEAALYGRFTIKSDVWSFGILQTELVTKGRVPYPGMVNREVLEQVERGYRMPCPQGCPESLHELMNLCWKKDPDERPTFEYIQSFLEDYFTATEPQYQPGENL

## COc1ccc2c(c1)c(C1=C(c3c[nH]c4ccccc34)C(=O)NC1=O)cn2CCCN(C)C
CSNK1E (human)
  residual activity: 86.4%
SRC (human)
  residual activity: 79.8%
FES (human)
  residual activity: 120%
CDC42BPB (human)
  residual activity: 89.4%
AURKB (human)
  residual activity: 88.5%
DAPK1 (human)
  residual activity: 105%
FGR (human)
  residual activity: 107%
STK4 (human)
  residual activity: 65.2%
MET (human)
  residual activity: 85.6%
DYRK1A (human)
  residual activity: 84.7%
GSK3A (human)
  residual activity: 14%
PIM2 (human)
  residual activity: 90.5%
CSNK1A1 (human)
  residual activity: 62.3%
CDK5 CDK5R1 p25 (human)
  residual activity: 114%
RPS6KA2 KD1 KD2 (human)
  residual activity: 5.46%
MAP3K2 (human)
  residual activity: 80.6%
YES1 (human)
  residual activity: 90.4%
CAMKK1 (human)
  residual activity: 94.8%
MAPK11 (human)
  residual activity: 96.7%
HIPK2 (human)
  residual activity: 96.3%
MAP3K11 (human)
  residual activity: 75.6%
TGFBR1 (human)
  residual activity: 101%
PRKG2 (human)
  residual activity: 60.7%
DMPK (human)
  residual activity: 97.7%
INSRR (human)
  residual activity: 101%
EPHB2 (human)
  residual activity: 78.7%
SGK3 (human)
  residual activity: 101%
AKT3 (human)
  residual activity: 63.7%
MYLK2 (human)
  residual activity: 96%
CSNK1D (human)
  residual activity: 92%
RAF1 (human)
  residual activity: 99.3%
OXSR1 (human)
  residual activity: 97.7%
PRKCD (human)
  residual activity: 1.67%
PTK2 (human)
  residual activity: 88.2%
JAK2 JH1 JH2 (human)
  residual activity: 97.5%
AURKA (human)
  residual activity: 86.6%
PDGFRB (human)
  residual activity: 75.8%
BLK (human)
  residual activity: 78.8%
MLTK (human)
  residual activity: 95.9%
MAP2K2 (human)
  residual activity: 103%
[1]
  residual activity: 100%
FLT1 (human)
  residual activity: 22%

## Ic1cccc(CSc2nnc(-c3ccncc3)o2)c1
CSNK1E (human)
  residual activity: 94.3%
SRC (human)
  residual activity: 101%
FES (human)
  residual activity: 98%
CDC42BPB (human)
  residual activity: 96.6%
AURKB (human)
  residual activity: 99.1%
DAPK1 (human)
  residual activity: 90.3%
FGR (human)
  residual activity: 90.9%
STK4 (human)
  residual activity: 102%
MET (human)
  residual activity: 88.7%
DYRK1A (human)
  residual activity: 96.4%
GSK3A (human)
  residual activity: 42.7%
PIM2 (human)
  residual activity: 102%
CSNK1A1 (human)
  residual activity: 97%
CDK5 CDK5R1 p25 (human)
  residual activity: 90.5%
RPS6KA2 KD1 KD2 (human)
  residual activity: 101%
MAP3K2 (human)
  residual activity: 106%
YES1 (human)
  residual activity: 95.7%
CAMKK1 (human)
  residual activity: 124%
MAPK11 (human)
  residual activity: 96.9%
HIPK2 (human)
  residual activity: 102%
MAP3K11 (human)
  residual activity: 99.6%
TGFBR1 (human)
  residual activity: 94.4%
PRKG2 (human)
  residual activity: 105%
DMPK (human)
  residual activity: 105%
INSRR (human)
  residual activity: 98%
EPHB2 (human)
  residual activity: 87.7%
SGK3 (human)
  residual activity: 98.5%
AKT3 (human)
  residual activity: 90.7%
MYLK2 (human)
  residual activity: 101%
CSNK1D (human)
  residual activity: 103%
RAF1 (human)
  residual activity: 92.8%
OXSR1 (human)
  residual activity: 105%
PRKCD (human)
  residual activity: 83.7%
PTK2 (human)
  residual activity: 106%
JAK2 JH1 JH2 (human)
  residual activity: 107%
AURKA (human)
  residual activity: 95.8%
PDGFRB (human)
  residual activity: 97.7%
BLK (human)
  residual activity: 103%
MLTK (human)
  residual activity: 96.7%
MAP2K2 (human)
  residual activity: 102%
[1]
  residual activity: 103%
FLT1 (human)
  residual activity: 91%

## NC(=O)c1cccc(-c2cc(Nc3ccc(OC(F)(F)F)cc3)ncn2)c1
CSNK1E (human)
  residual activity: 103%
SRC (human)
  residual activity: 97%
FES (human)
  residual activity: 96.3%
CDC42BPB (human)
  residual activity: 93.2%
AURKB (human)
  residual activity: 96.9%
DAPK1 (human)
  residual activity: 81.1%
FGR (human)
  residual activity: 96.8%
STK4 (human)
  residual activity: 88.7%
MET (human)
  residual activity: 135%
DYRK1A (human)
  residual activity: 101%
GSK3A (human)
  residual activity: 93.9%
PIM2 (human)
  residual activity: 115%
CSNK1A1 (human)
  residual activity: 103%
CDK5 CDK5R1 p25 (human)
  residual activity: 80.1%
RPS6KA2 KD1 KD2 (human)
  residual activity: 96.2%
MAP3K2 (human)
  residual activity: 79.5%
YES1 (human)
  residual activity: 87.4%
CAMKK1 (human)
  residual activity: 103%
MAPK11 (human)
  residual activity: 105%
HIPK2 (human)
  residual activity: 102%
MAP3K11 (human)
  residual activity: 99.4%
TGFBR1 (human)
  residual activity: 103%
PRKG2 (human)
  residual activity: 96.4%
DMPK (human)
  residual activity: 96.1%
INSRR (human)
  residual activity: 90.7%
EPHB2 (human)
  residual activity: 102%
SGK3 (human)
  residual activity: 104%
AKT3 (human)
  residual activity: 93.5%
MYLK2 (human)
  residual activity: 97.1%
CSNK1D (human)
  residual activity: 99.1%
RAF1 (human)
  residual activity: 105%
OXSR1 (human)
  residual activity: 97.9%
PRKCD (human)
  residual activity: 83.1%
PTK2 (human)
  residual activity: 100%
JAK2 JH1 JH2 (human)
  residual activity: 104%
AURKA (human)
  residual activity: 107%
PDGFRB (human)
  residual activity: 94.8%
BLK (human)
  residual activity: 103%
MLTK (human)
  residual activity: 102%
MAP2K2 (human)
  residual activity: 92.5%
[1]
  residual activity: 98.9%
FLT1 (human)
  residual activity: 98.4%
